The record followed here is ChEMBL document CHEMBL2396648, “Potent suppression of c-di-GMP synthesis via I-site allosteric inhibition of diguanylate cyclases with 2'-F-c-di-GMP” (Bioorg Med Chem, 2013).

The nature of experiment [1]: Competitive binding affinity to Pseudomonas aeruginosa WspR after 5 mins in presence of [32P]-c-di-GMP.
Experiment [2] has as its target T1, Cyclic di-GMP phosphodiesterase RocR (Pseudomonas aeruginosa (strain ATCC 15692 / PAO1 / 1C / PRS 101 / LMG12228), UniProt Q9HX69).
T1 sequence (Q9HX69 whole entry): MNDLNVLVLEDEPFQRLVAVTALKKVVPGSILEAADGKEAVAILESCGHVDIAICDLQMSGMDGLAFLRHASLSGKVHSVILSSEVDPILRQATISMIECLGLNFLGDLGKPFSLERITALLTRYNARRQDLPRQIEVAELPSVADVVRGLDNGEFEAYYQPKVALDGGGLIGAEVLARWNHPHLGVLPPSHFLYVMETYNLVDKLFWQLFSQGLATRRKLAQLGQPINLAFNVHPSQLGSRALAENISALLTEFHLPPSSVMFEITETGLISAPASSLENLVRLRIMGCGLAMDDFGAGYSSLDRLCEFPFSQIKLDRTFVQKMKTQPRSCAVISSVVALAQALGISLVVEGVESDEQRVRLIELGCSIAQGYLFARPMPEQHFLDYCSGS
Nature of the experiment: Competitive binding affinity to Pseudomonas aeruginosa PAO1 His6-tagged RocR expressed in Escherichia coli BL21 (DE3) after 5 mins in presence of [32P]-c-di-GMP.

A short description of experiment [3]: Competitive binding affinity to Pseudomonas aeruginosa Alg44 PilZ domain after 5 mins in presence of [32P]-c-di-GMP.
Experiment [4] can be described thus: Allosteric inhibition of Pseudomonas aeruginosa WspR using [32P]-GTP as substrate measured for 1 hr by thin layer chromatographic analysis.
The next experiment relates to Pseudomonas aeruginosa. Nature of the experiment: Inhibition of Pseudomonas aeruginosa WspR using [32P]-GTP as substrate at 100 uM after 120 mins by thin layer chromatographic analysis.
Experiment [5] has as its system Pseudomonas aeruginosa PA14. Nature of the experiment: Inhibition of Pseudomonas aeruginosa PA14 PvrR using [32P]-GTP as substrate at 100 uM after 120 mins by thin layer chromatographic analysis.
Experiment [6] relates to Pseudomonas aeruginosa PA14. Nature of the experiment: Inhibition of Pseudomonas aeruginosa PA14 diguanylate cyclase PA1107 using [32P]-GTP as substrate at 100 uM after 120 mins by thin layer chromatographic analysis.
In experiment [7] the target is T2, Cyclic di-GMP phosphodiesterase RocR (Pseudomonas aeruginosa (strain ATCC 15692 / PAO1 / 1C / PRS 101 / LMG12228)) (UniProt Q9HX69).
T2 sequence (whole entry): T1 sequence (Q9HX69 whole entry)
Briefly: Inhibition of Pseudomonas aeruginosa PAO1 His6-tagged RocR expressed in Escherichia coli BL21 (DE3) using [32P]-GTP as substrate at 100 uM after 120 mins by thin layer chromatographic analysis.

pIC50, pKi: −log10 of the molar value. Calls of active or inactive are those of the source. The rule behind the calls is not given here. Bounds are passed on as bounds.

In the case of `Nc1nc2c(ncn2[C@H]2C[C@@H]3OP(=O)(O)OC[C@H]4O[C@@H](n5cnc6c(=O)[nH]c(N)nc65)C[C@@H]4OP(=O)(O)OC[C@H]3O2)c(=O)[nH]1`, the pIC50 in experiment [1] is less than 4.00; in experiment [2], 7.70; in experiment [3], 4.87.

Regarding `CO[C@@H]1[C@@H]2OP(=O)(O)OC[C@H]3O[C@@H](n4cnc5c(=O)[nH]c(N)nc54)[C@H](OC)[C@@H]3OP(=O)(O)OC[C@H]2O[C@H]1n1cnc2c(=O)[nH]c(N)nc21`, the negative logarithm of the IC50 (pIC50) was less than 4.00 in experiment [1], 5.19 in experiment [2] and less than 4.00 in experiment [3].

For the compound `Nc1nc2c(ncn2[C@@H]2O[C@@H]3COP(=O)(O)O[C@H]4[C@@H](F)[C@H](n5cnc6c(=O)[nH]c(N)nc65)O[C@@H]4COP(=O)(O)O[C@H]3[C@H]2F)c(=O)[nH]1`, the pKi in experiment [4] is 4.90. Moreover, the negative logarithm of the IC50 (pIC50) in experiment [1] was 4.96; in experiment [2], 6.14; in experiment [3], 5.51. Also, the inhibition entry (in the experiment with Pseudomonas aeruginosa; in experiment [6]; in experiment [7]) was “Active” throughout. In addition, in experiment [5], the inhibition entry was “inactive”.

For `Nc1nc2c(ncn2[C@@H]2O[C@@H]3CO[P@](=O)(O)O[C@H]4[C@@H](O)[C@H](n5cnc6c(=O)[nH]c(N)nc65)O[C@@H]4CO[P@](=O)(O)O[C@H]3[C@H]2O)c(=O)[nH]1`, in experiment [2], the negative logarithm of the IC50 (pIC50) was 7.70.

For the compound `Nc1nc2c(ncn2[C@@H]2O[C@@H]3COP(=O)(O)O[C@H]4[C@@H](O)[C@H](n5cnc6c(=O)[nH]c(N)nc65)O[C@@H]4COP(=O)(O)O[C@H]3[C@H]2O)c(=O)[nH]1`, the pKi in experiment [4] is 4.81. The negative-log IC50 (pIC50) in experiment [1] was 4.31; in experiment [3], 5.11. The inhibition result (with Pseudomonas aeruginosa; in experiment [6]; in experiment [7]) was “Active” in each case. For the same compound, the inhibition entry in experiment [5] was “inactive”.
